Measurements reported in US20040241152A1, “Methods for inducing an immune response with an elevated th1/th2 ratio, by intracellular induction of nfkappab” (priority 2001, published 2004).

Assays:
[1] = molecule incorporated into DNA vaccine; cited from earlier work
NF-κB = experiment: Preliminary work: NF-κB induction and APC/DC function; type: cell-based
[2] = test system: CD14+ peripheral blood monocytes cultured to DC; experiment: Maturation of monocyte-derived dendritic cells to CD83+ cells; type: cell-based; conditions: 15 ng/ml, within 1 day
Experimental: CD14^+ peripheral blood monocytes are adhered to tissue culture flasks and cultured in the presence of 1% AB serum, GM-CSF (400 ng/ml) and IL-4 (400 IU/ml) for 7 days. This yields cells with the morphology of DC and a mean of 49% with the CD1a^+ marker which is indicative of the immature form of the DC capable of taking up and presenting antigen. These cells are then matured to CD83^+ cells by the addition of TNFα (15 ng/ml), which enables the DC to present antigen to cytotoxic T-cells. 7% of the cells become CD83^+ within 1 day, but 3 days at least are required for maximum effect. It is possible that monocyte conditioned medium could replace the 1% AB serum but this is probably not desirable.

mice = conditions: gene incorporated into allergen DNA vector; cited from earlier work

In the case of “IL-15: cytokine incorporated into DNA vaccines”, the Antibody [1] is given as “IgG?”, the CTL [1] is given as “↑CTL” and the Cellular response [1] is given as “±↑proliferation”.

In the case of “IL-5: cytokine incorporated into DNA vaccines”, the Antibody [1] is listed as “↑IgG”.

In the case of TGF-β, the Antibody [1] is listed as “↑IgG1”.

For “GM-CSF: cytokine incorporated into DNA vaccines”, the CTL [1] is listed as “↑CTL”.

With MEKK1: kinase named as NF-κB inducer the “induction of NF-κB and enhancement of APC/DC function” value (NF-κB) was “can induce NF-κB and enhance APC such as DC function”.

For “IFNγ: cytokine incorporated into DNA vaccines”, the CTL [1] is given as “↑CTL”.

In the case of TNFα, the “cells becoming CD83+” value [2] is reported as 7%.

In the case of “IL-18: cytokine (gene) incorporated into DNA vaccines”, the Antibody [1] is given as “↑IgG”, the CTL [1] is given as “↑CTL” and the Cellular response [1] is given as “↑proliferation”. The airway hyperresponsiveness (mice) was “successfully reverse airway hyperresponsiveness”.

In the case of “CTLA4: costimulatory molecule incorporated into DNA vaccines”, the Cellular response [1] is given as “↑proliferation”.

B1: IL-7: cytokine incorporated into DNA vaccines (protein, UniProt P13232 26-177, looked up)
Interleukin-7: DCDIEGKDGKQYESVLMVSIDQLLDSMKEIGSNCLNNEFNFFKRHICDANKEGMFLFRAARKLRQFLKMNSTGDFDLHLLKVSEGTTILLNCTGQVKGRKPAALGEAQPTKSLEENKSLKEQKKLNDLCFLKRLLQEIKTCWNKILMGTKEH
In the case of B1, the Cellular response [1] is given as “↑IFNγ”.

B2: CD80: costimulatory molecule incorporated into DNA vaccines (protein, UniProt P33681 35-288, looked up)
T-lymphocyte activation …: VIHVTKEVKEVATLSCGHNVSVEELAQTRIYWQKEKKMVLTMMSGDMNIWPEYKNRTIFDITNNLSIVILALRPSDEGTYECVVLKYEKDAFKREHLAEVTLSVKADFPTPSISDFEIPTSNIRRIICSTSGGFPEPHLSWLENGEELNAINTTVSQDPETELYAVSSKLDFNMTTNHSFMCLIKYGHLRVNQTFNWNTTKQEHFPDNLLPSWAITLISVNGIFVICCLTYCFAPRCRERRRNERLRRESVRPV
In the case of B2, the CTL [1] is listed as “↑CTL”.

B3: CD86: costimulatory molecule incorporated into DNA vaccines (protein, UniProt P42081 24-329, looked up)
T-lymphocyte activation …: APLKIQAYFNETADLPCQFANSQNQSLSELVVFWQDQENLVLNEVYLGKEKFDSVHSKYMGRTSFDSDSWTLRLHNLQIKDKGLYQCIIHHKKPTGMIRIHQMNSELSVLANFSQPEIVPISNITENVYINLTCSSIHGYPEPKKMSVLLRTKNSTIEYDGVMQKSQDNVTELYDVSISLSVSFPDVTSNMTIFCILETDKTRLLSSPFSIELEDPQPPPDHIPWITAVLPTVIICVMVFCLILWKWKKKKRPRNSYKCGTNTMEREESEQTKKREKIHIPERSDEAQRVFKSSKTSSCDKSDTCF
For B3, the CTL [1] is listed as “↑CTL”.

B4: CD40L: costimulatory molecule incorporated into DNA vaccines (protein, UniProt P29965 113-261, looked up)
CD40 ligand, soluble form: MQKGDQNPQIAAHVISEASSKTTSVLQWAEKGYYTMSNNLVTLENGKQLTVKRQGLYYIYAQVTFCSNREASSQAPFIASLCLKSPGRFERILLRAANTHSSAKPCGQQSIHLGGVFELQPGASVFVNVTDPSQVSHGTGFTSFGLLKL
In the case of B4, the CTL [1] is given as “↑CTL” and the Cellular response [1] is given as “↑IFNγ”.

B5: CD54: costimulatory molecule incorporated into DNA vaccines (protein, UniProt P05362 28-532, looked up)
Intercellular adhesion …: QTSVSPSKVILPRGGSVLVTCSTSCDQPKLLGIETPLPKKELLLPGNNRKVYELSNVQEDSQPMCYSNCPDGQSTAKTFLTVYWTPERVELAPLPSWQPVGKNLTLRCQVEGGAPRANLTVVLLRGEKELKREPAVGEPAEVTTTVLVRRDHHGANFSCRTELDLRPQGLELFENTSAPYQLQTFVLPATPPQLVSPRVLEVDTQGTVVCSLDGLFPVSEAQVHLALGDQRLNPTVTYGNDSFSAKASVSVTAEDEGTQRLTCAVILGNQSQETLQTVTIYSFPAPNVILTKPEVSEGTEVTVKCEAHPRAKVTLNGVPAQPLGPRAQLLLKATPEDNGRSFSCSATLEVAGQLIHKNQTRELRVLYGPRLDERDCPGNWTWPENSQQTPMCQAWGNPLPELKCLKDGTFPLPIGESVTVTRDLEGTYLCRARSTQGEVTRKVTVNVLSPRYEIVIITVVAAAVIMGTAGLSTYLYNRQRKIKKYRLQQAQKGTPMKPNTQATPP
In the case of B5, the CTL [1] is listed as “↑CTL”.

B6: LFA-3: costimulatory molecule incorporated into DNA vaccines (protein, UniProt P19256 29-250, looked up)
Lymphocyte …: FSQQIYGVVYGNVTFHVPSNVPLKEVLWKKQKDKVAELENSEFRAFSSFKNRVYLDTVSGSLTIYNLTSSDEDEYEMESPNITDTMKFFLYVLESLPSPTLTCALTNGSIEVQCMIPEHYNSHRGLIMYSWDCPMEQCKRNSTSIYFKMENDLPQKIQCTLSNPLFNTTSSIILTTCIPSSGHSRHRYALIPIPLAVITTCIVLYMNGILKCDRKPDRTNSN
For B6, the CTL [1] is given as “↑CTL”.
